Data as given in patent US4001414A, “1,3,4-Trimethyl-2-(3,4,5-trimethoxybenzyl)-1,2,5,6-tetrahydropyridine and analgesic composition and method using it” (priority 1974, dated 1977).

What was measured:
[1] = test system: acetic acid-induced writhing; assay: Analgesic activity, acetic acid-induced writhing technique; type: in vivo, albino I.C.R. Swiss mice; settings: for No. of writhes (x ± M.S.E.): acetic acid 0.25 ml of 1% i.p. after 30 minutes, writhes counted in 20 minutes, p <0.001, control 112.2 ± 4.2, average value ± mean standard error; for analgesic activity (in words): as may be seen from Table B, mice
Description: The analgesic activity was investigated in albino I.C.R. Swiss mice, using the acetic acid-induced writhing technique. Groups each of 10 mice were assembled.
The analgesics were injected intraperitoneally, and after 30 minutes 0.25 ml of a 1% solution of acetic acid was injected intraperitoneally. A control group received only acetic acid. The numbers of writhes made by each mouse was counted in the 20 minutes following administration of the acetic acid.

[2] = Acute toxicity (LD50), i.p., method of Litchfield and Wilcoxon; settings: mouse, in vivo, ip; I.C.R. Swiss mice, both sexes, 30 ± 2 g, intraperitoneal
Description: Acute toxicity studies were conducted in I.C.R. Swiss mice weighing 30 ± 2 g, of both sexes. The products were administered intraperitoneally (i.p.). The acute toxicity calculations were made by the method of Litchfield and Wilcoxon.

SMILES | No. of writhes (x ± M.S.E.) ([1]; 20 mg/kg i.p.) | analgesic activity (in words) ([1]; 20 mg/kg i.p.) | LD50 [2] [mg/kg] | No. of writhes (x ± M.S.E.) ([1]; 25 mg/kg i.p.)
COc1cc(CC2C(C)=C(C)CCN2C)cc(OC)c1OC (stereo not drawn) [Product I, 1,3,4-trimethyl-2-(3,4,5-trimethoxybenzyl)-1,2,5,6-tetrahydropyridine] | 74.5 ± 4.84 | have analgesic activity | – | –
COc1cc(C[N+]2(C)CCC(C)=C(C)C2)cc(OC)c1OC.[Cl-] (stereo not drawn) [Product II, 1,3,4-trimethyl-1-(3,4,5-trimethoxybenzyl)-1,2,5,6-tetrahydropyridinium chloride] | 53.6 ± 4.7 | have analgesic activity | 77 | –
CCC(=O)O[C@](Cc1ccccc1)(c1ccccc1)[C@H](C)CN(C)C [Dextropropoxyphene, reference compound] | – | – | – | 22.8 ± 4.74
